From US6908902B2, “Treatment of neurological dysfunction comprising fructopyranose sulfamates and erythropoietin” (Ortho-McNeil Pharmaceutical, Inc., priority 2001, dated 2005)

Key:
Assay type in all cases: cell-based
Rat Hippocampal Cultures = test: Neurite Outgrowth MAP2-FITC Assay for Rat Hippocampal Cells; settings: one week in culture, mean of eight observations
Text: (§1) Dissociated hippocampal and cortical cell cultures were established from embryonic Day 18 rat fetuses as previously described (Mattson et al., 1994). Briefly, fetuses were removed via cesarean section from pregnant rats (Sprague-Dawley) and anesthetized with halothane according to the AVMA Panel on Euthanasia. Fetuses were decapitated and the brains were removed and placed in HEPES-buffered Hank's Balanced Salt solution (HBSS; Gibco). The hippocampi and cortices were dissected out and pooled according to tissue-type. Tissue was trypsinized for fifteen minutes (1 mg/ml trypsin-HBSS; Worthington), rinsed with fresh HBSS, incubated in trypsin inhibitor (1 mg/ml; Sigma) for five minutes, rinsed again with fresh HBSS and then triturated in 1 ml fresh HBSS with a fire-polished glass pipette. Dissociated cells were seeded at 20,000 cells (Array Scan Assay) and 30,000 cells (MAP2-FITC assay)/well onto poly-D-lysine coated 96-well plates (Collaborative BioScience). Each well contained 100 μl of Eagle's Minimal Essential Media (MEM; Gibco) supplemented with 26 mM NaHCO3 (Sigma), 56 mM glucose (Sigma), 15 mM KCl (Sigma), 1 mM sodium pyruvate (Sigma), 1.1 mM L-glutamine (Sigma), 10% (v/v) heat-inactivated fetal bovine serum (Hyclone), and 0.001% gentamicin sulfate (Sigma) (pH 7.4). Cells were allowed to attach for twenty-four hours in a humidified 37° C. 5% CO2 incubator before experimental treatment. The culture media was aspirated and exchanged with fresh media every three days.
(§2) Twenty-four hours after plating, rat hippocampal cell cultures, prepared as in Example 1, were treated with vehicle (phosphate buffered saline+0.1% bovine serum albumin; Sigma), topiramate, EPO (rhEPO; 50 μM stock in 0.2 M citrate, 0.585 g/L NaCl diluted to appropriate concentrations in phosphate buffered saline+0.1% bovine serum albumin (BSA; Sigma)) or a combination of topiramate and EPO. On the third day in culture, the media was aspirated off and replaced with fresh media and test compound. At one week in culture, the cells were fixed with 10% phosphate-buffered formalin for fifteen minutes, then rinsed with phosphate buffered saline and placed in blocking serum for thirty minutes (horse serum; 1:50 dilution in phosphate buffered saline; Vector Labs). Cultures were rinsed again with phosphate buffered saline and then incubated in primary antibody for two hours (microtubule-associated protein-2 (MAP-2) is a selective marker for dendritic processes; anti-mouse monoclonal (Chemicon); 1:1000 dilution of MAP-2 in antibody diluent (Zymed)). Negative control wells were incubated in antibody diluent alone. Background signal was determined by blank wells (cell-free) incubated with or without antibody. Cultures were rinsed again with phosphate buffered saline and then placed in fluorescein-labeled secondary antibody for 1 hr (FITC; anti-mouse IgG; rat adsorbed; 1:50 dilution in DPBS; Vector Labs). Cultures were rinsed a final time with phosphate buffered saline. The plates were then read on a Cytofluor 4000 fluorescence plate reader. Neurite outgrowth was expressed as percent change from control (vehicle; mean fluorescence±SEM).
The ability of rhEPO, topiramate and the combination of rhEPO and topiramate to increase neurite outgrowth in rat hippocampal cultures was determined according to the procedure described above, with results as listed in Table 2. For each case or treatment, the measured value in the Table represents the mean percent change of eight experimental observations (from vehicle control). The abbreviation NT, as used in Table 2 represents a concentration not tested.

Rat Cortical Cultures [1] = test: Neurite Outgrowth MAP2-FITC Assay for Rat Cortical Cells; settings: one week in culture, mean of eight observations
Text: as §1
as §2, with “cortical” for “hippocampal”, “one hour” for “1 hr”
The ability of rhEPO, topiramate and the combination of rhEPO and topiramate to increase neurite outgrowth in rat cortical cultures was determined according to the procedure described above, with results as listed in Table 3. For each case or treatment, the measured value in the Table represents the mean percent change of eight experimental observations (from vehicle control). The abbreviation NT, as used in Table 3 represents a concentration not tested.

Rat Cortical Cultures [2] = test: Array Scan Assay, Neurite Outgrowth (Neuron-specific); settings: mean of eight observations
Text: as §1
Twenty-four hours after plating, rat cerebral cortical cell cultures, prepared as described above, were treated with vehicle (phosphate buffered saline+0.1% bovine serum albumin; Sigma), topiramate, EPO (rhEPO; 50 μM stock in 0.2 M citrate, 0.585 g/L NaCl diluted to appropriate concentrations in phosphate buffered saline+0.1% bovine serum albumin (BSA; Sigma)) or a combination of topiramate and EPO. On the third day in culture, the media was aspirated off and replaced with fresh media and test compound.
Culture media (prepared as described above) was aspirated and replaced with formaldehyde/Hoechst solution (fix cells and stain nuclei). Cultures were incubated in this solution for twenty minutes, then washed with permeabilization/wash/antibody (PWA) buffer. The buffer solution was aspirated and 100 μl of primary antibody (rabbit polyclonal IgG; specific for an epitope present only in neurons and neurites) was added to each well. The cultures were incubated for 60 minutes, then washed with PWA buffer. The buffer solution was again aspirated and 100 μl of secondary antibody (Alexa Fluor 488 conjugated goat anti-rabbit IgG) was added to each well. The cultures were incubated for 60 minutes and then washed with PWA buffer, followed by phosphate buffered saline (PBS) solution.
100 μl PBS-CM were added to each well, the plates were sealed and fluorescence was read on the Array Scan II System. (All reagents for this measurement were provided by the neurite outgrowth hit kit # K07-0001-1, Cellomics Inc.) The Array Scan algorithm for neurite outgrowth calculates the neurite outgrowth index for each field per well. This number represents the number of neurons with neurites divided by the total number of neurons in the field.
The ability of rhEPO, topiramate (TPM) and the combination of rhEPO and topiramate to increase neurite outgrowth in rat cortical cell cultures was determined according to the procedure described above, with results as listed in Table 1. For each dosage concentration, the measured value in the Table represents the mean percent change of eight experimental observations (from vehicle control). The abbreviation NT, as used in the Table below represents a concentration not tested.

[3] = Concentration 1 pM (rhEPO concentration in combinations)
[4] = Concentration 10 pM (rhEPO concentration in combinations)
[5] = Concentration 100 fM (rhEPO concentration in combinations)
[6] = Concentration 1 fM (rhEPO concentration in combinations)
[7] = Concentration 10 fM (rhEPO concentration in combinations)

| Compound | Neurite outgrowth, mean percent change from vehicle control (Measured) (Rat Hippocampal Cultures; [3]) | Neurite outgrowth, mean percent change from vehicle control (Measured) (Rat Hippocampal Cultures; [4]) | Neurite outgrowth, mean percent change from vehicle control (Measured) (Rat Hippocampal Cultures; Concentration 100 pM) | Neurite outgrowth, mean percent change from vehicle control (Measured) (Rat Hippocampal Cultures; [5]) | Neurite outgrowth, mean percent change from vehicle control (Measured) (Rat Cortical Cultures [1]; [3]) | Neurite outgrowth, mean percent change from vehicle control (Measured) (Rat Cortical Cultures [1]; [4]) | Neurite outgrowth, mean percent change from vehicle control (Measured) (Rat Cortical Cultures [1]; Concentration 100 pM) | Neurite outgrowth, mean percent change from vehicle control (Measured) (Rat Cortical Cultures [1]; [5]) | Neurite outgrowth, mean percent change from vehicle control (Measured) (Rat Cortical Cultures [2]; [3]) | Neurite outgrowth, mean percent change from vehicle control (Measured) (Rat Cortical Cultures [2]; [4]) | Neurite outgrowth, mean percent change from vehicle control (Measured) (Rat Cortical Cultures [2]; Concentration 100 pM) | Neurite outgrowth, mean percent change from vehicle control (Measured) (Rat Cortical Cultures [2]; [5]) | Neurite outgrowth, mean percent change from vehicle control (Measured) (Rat Hippocampal Cultures; [6]) | Neurite outgrowth, mean percent change from vehicle control (Measured) (Rat Hippocampal Cultures; [7]) | Neurite outgrowth, mean percent change from vehicle control (Measured) (Rat Cortical Cultures [1]; [6]) | Neurite outgrowth, mean percent change from vehicle control (Measured) (Rat Cortical Cultures [1]; [7]) | Neurite outgrowth, mean percent change from vehicle control (Measured) (Rat Cortical Cultures [2]; [6]) | Neurite outgrowth, mean percent change from vehicle control (Measured) (Rat Cortical Cultures [2]; [7]) |
| --- | --- | --- | --- | --- | --- | --- | --- | --- | --- | --- | --- | --- | --- | --- | --- | --- | --- | --- |
| CC1(C)O[C@@H]2[C@@H](CO[C@@]3(COS(N)(=O)=O)OC(C)(C)O[C@@H]23)O1 [Topiramate, 2,3:4,5-bis-O-(1-methylethylidene)-β-D-fructopyranose sulfamate, reference compound] | 14% | 5% | −9% | 33% | 23% | 30% | 37% | 24% | 0% | 20% | 12% | 4% | – | – | – | – | – | – |
| rhEPO: Recombinant human erythropoietin; amino acid sequence identical to that of human urinary erythropoietin | 20% | 21% | – | 12% | 19% | 24% | – | 10% | 9% | 11% | – | 28% | 21% | 15% | −14% | −2% | 29% | −1% |
